# Assays:
# [1] = Measurement of imaging sensitivity (phantom experiment), 19F MRI; set-up: key to detectability as image at 500 mM / detectability as image at 100 mM / detectability as image at 50 mM / detectability as image at 10 mM / detectability as image at 5 mM / detectability as image at 1 mM / detectability as image at 500 μM / detectability as image at 100 μM: .smallcircle.: detectable as clear image; Δ: margially detectable as image; x: undetectable; settings: 1.5 T; for detectability as image at 100 μM / detectability as image at 500 μM / detectability as image at 1 mM / detectability as image at 5 mM / detectability as image at 10 mM / detectability as image at 50 mM / detectability as image at 100 mM / detectability as image at 500 mM: 20 min, complexes GRASS TR 10/TE 2 msec, 5-FU spin echo TR 4500/TE 100 msec
# Protocol: Measurement of imaging sensitivity (phantom experiment)
# Each of metal complex solution with various concentration of the present invention was sealed in cylindrical acryl phantom with an inner diameter of 1 cm and a height of 10 cm and subject to imaging. SIGNA (1.5 T) available from GE was used as an MRI apparatus, and imaging was performed by using a surface coil 13 cm in diameter for fluorine. A GRASS method was used as a pulse sequence and measurement condition was as followed:
# TR (repetition time)=10 msec;
# The measurement was performed for 20 min., and the number of acquisition was 937. As references, alkaline aqueous solutions of 5-fluorouracil with various concentrations were imaged by an identical apparatus. […] The imaging time was 20 min., and the number of acquisition was twice. […] In contrast, each metal complex compound of the present […] of 0.5 mM to 5 mM.
# [2] = Measurement of relaxation time (T1 and T2 of intramolecular fluorine atoms) by 90 MHz NMR; format: physicochemical; set-up: unit not given here; settings: 10mM aqueous solution
Molecule,detectability as image at 100 μM [1],detectability as image at 500 μM [1],detectability as image at 1 mM [1],detectability as image at 5 mM [1],detectability as image at 10 mM [1],detectability as image at 50 mM [1],detectability as image at 100 mM [1],detectability as image at 500 mM [1],concentration required for detection as a clear image ([1]; 20 min imaging),T1 [2],T2 [2]
"O=C(O)CN1CCCN(CC(=O)O)CCN(CC(=O)O)CCCN(CCN(Cc2cc(C(F)(F)F)cc(C(F)(F)F)c2)Cc2cc(C(F)(F)F)cc(C(F)(F)F)c2)CC1.[Gd] [Compound-20, gadolinium complex of 1-[N""""',N""""'-bis[3,5-bis(trifluoromethyl)benzyl]aminoethyl]-1,4,8,11-tetraazacyclotetradecane-4,8,11-triacetic acid]",Δ,Δ,.smallcircle.,.smallcircle.,.smallcircle.,.smallcircle.,.smallcircle.,.smallcircle.,–,–,–
"O=c1[nH]cc(F)c(=O)[nH]1 [Compound 5-FU, 5-fluorouracil, reference compound]",x,x,x,x,x,Δ,Δ,.smallcircle.,≥ 500 mM,–,–
"gadolinium complex with 1-(2,2,2-trifluoroethyl)-1,4,8,11-tetraazacyclodecane-4,8,11-tetraacetic acid [Compound-1]",–,–,–,–,–,–,–,–,–,1.73,1.58
"O=C(O)CN1CCCN(CC(=O)O)CCN(Cc2cc(C(F)(F)F)cc(C(F)(F)F)c2)CCCN(CC(=O)O)CC1.[Gd] [Compound-4, gadolinium complex of 1-[3,5-bis(trifluoromethyl)benzyl]-,1,4,8,11-tetraazacyclotetradecane-4,8,11-triacetic acid]",x,Δ,.smallcircle.,.smallcircle.,.smallcircle.,.smallcircle.,.smallcircle.,.smallcircle.,–,2.16,1.82
"O=C(O)CN1CCCN(CC(=O)O)CCN(Cc2cc(C(F)(F)F)cc(C(F)(F)F)c2)CCCN(CC(=O)O)CC1.[Cu] [Compound-23, copper complex of 1-[3,5-bis(trifluoromethyl)benzyl]-1,4,8,11-tetraazacyclotetradecane-4,8,11-triacetic acid]",x,x,Δ,.smallcircle.,.smallcircle.,.smallcircle.,.smallcircle.,.smallcircle.,–,36.5,24.9
O=C(O)CN1CCCN(Cc2cc(C(F)(F)F)cc(C(F)(F)F)c2)CCN(CC(=O)O)CCCN(Cc2cc(C(F)(F)F)cc(C(F)(F)F)c2)CC1.[Gd] [Compound-5],x,Δ,.smallcircle.,.smallcircle.,.smallcircle.,.smallcircle.,.smallcircle.,.smallcircle.,–,–,–
O=C(O)CN1CCCN(CC(=O)O)CCN(Cc2ccc(C(F)(F)F)cc2)CCCN(CC(=O)O)CC1.[Gd] [Compound-3],x,x,Δ,Δ,.smallcircle.,.smallcircle.,.smallcircle.,.smallcircle.,–,–,–
"O=C([O-])CN1CCCN(CC(=O)[O-])CCN(Cc2cc(C(F)(F)F)cc(C(F)(F)F)c2)CCCN(CC(=O)[O-])CC1.[Cr+3] [Compound-24, chromium complex of 1-[3,5-bis(trifluoromethyl)benzyl]-1,4,8,11-tetraazacyclotetradecane-4,8,11-triacetic acid]",–,–,–,–,–,–,–,–,–,15.5,10.4
"gadolinium complex of 1-[N""""'-[3,5-bis(trifluoromethyl)benzyl]aminoethyl]-1,4,8,11-tetraazacyclotetradecane-4,8,11-triacetic acid [Compound-21]",–,–,–,–,–,–,–,–,–,6.34,4.21
"O=C(O)CN1CCCN(CC(=O)O)CCN(Cc2ccc(C(C(F)(F)F)(C(F)(F)F)C(F)(F)F)cc2)CCCN(CC(=O)O)CC1.[Gd] [Compound-10, gadolinium complex of 1-[4-[tris(trifluoromethyl)methyl]benzyl]-1,4,8,11-tetraazacyclotetradecane-4,8,11-triacetic acid]",–,–,–,–,–,–,–,–,–,3.27,2.83
"O=C(O)CN1CCN(CC(=O)O)CCN(Cc2cc(C(F)(F)F)cc(C(F)(F)F)c2)CCN(CC(=O)O)CC1.[Gd] [Compound-8, gadolinium complex of 1-[3,5-bis(trifluoromethyl)benzyl]1,4,7,10-tetraazacyclododecane-4,7,10-triacetic acid]",–,–,–,–,–,–,–,–,–,2.11,1.79
"O=C(O)CN1CCCN(CC(=O)O)CCN(Cc2ccc(/C=C/c3cc(C(F)(F)F)cc(C(F)(F)F)c3)cc2)CCCN(CC(=O)O)CC1.[Gd] [Compound-13, gadolinium complex of 1-[4-[2-trans-(3,5-bis(trifluoromethyl)phenyl)vinyl]benzyl]-1,4,8,11-tetraazacyclotetradecane-4,8,11-triacetic acid]",x,x,Δ,.smallcircle.,.smallcircle.,.smallcircle.,.smallcircle.,.smallcircle.,–,12.6,9.31
